Data from patent publication US7354711B2, “Methods for inhibiting immunostimulatory DNA associated responses” (University of Iowa Research Foundation, priority 1997, dated 2008).

Assays:
WEHI 231 cells [1] = test: Inhibition of CpG-ODN 1760 protection against α-sIgM-induced inhibition of [3H] thymidine uptake; format: cell-based, mouse
Experimental: (§1) The assay of [^3H] Thymidine incorporation was carried out as follows. WEHI 231 cells (200 μL at 2×10^5/milliliter, in duplicate or triplicate) were incubated in a 96-well plate (Costar, Cambridge Mass.). Additions were made as indicated. After incubating for 16 hours, 0.5 μCi [methyl-^3H] thymidine (2 Ci/millimole, DuPont NEN, Boston Mass.) was added to each well, and the cells were incubated for another 4 hours. Cellular DNA was then captured onto glass fiber filters (Whatman 934AH) using a cell harvester (Brandel, Gaithersberg Md.). The filters were dried, placed into plastic scintillation vials with 10 milliliters of scintillation cocktail (EconoSafe, Research Products International, Mount Prospect Ill.), and counted in a liquid scintillation counter (Beckman LS-3133 T). The ^3H recovered on the filter was expressed as a fraction of the ^3H added.
Referring to experiments summarized in FIG. 1, WEHI 231 cells (ca. 2×10^5 per milliliter) were incubated for 16 hours at 37° C. with 10 μgrams/milliliter α-sIgM, 6 μgrams/milliliter ODN 1760, and the indicated concentration of the compound. After 16 hours, 0.5 μCi [^3H] thymidine was added. After 4 more hours incubation, the cellular DNA was harvested onto glass fiber filters. The dry filters were counted in a liquid scintillation counter.
Each experimental point was the mean of at least duplicate measurements.
Referring to the experiments summarized in FIG. 3, 10 μgrams/milliliter α-sIgM and the indicated concentrations of ODN 1760 and quinacrine were added simultaneously to WEHI 231 cells. Thymidine incorporation was estimated at 16 hours as described for Example 1.
Referring to the experiments summarized in FIG. 4, WEHI 231 cells were incubated with α-sIgM and ODN 1760. At times thereafter 0.1 μM quinacrine was added (data shown in the left three bars). Cells were incubated with 10 μgrams/milliliter (α-sIgM and ODN 1760 (6 μgrams/milliliter, phosphorothioate or a phosphodiester ODN with the same sequence as 1760 (PD ODN) (30 μM at time 0 hours and 8 hours; data represented in right six bars in FIG. 4). [^3H] thymidine incorporation was estimated at 16 hours.
The symbol — indicates no change. Me and Et indicate —CH3 and —CH2CH3 respectively. Aromatic substituents are in the para position except as indicated. The activity is —log10 of the concentration (M) required for half maximal inhibition of CpG-ODN effect on [^3H] thymidine uptake in the presence of α-sIgM.

WEHI 231 cells [2] = test: DNA fragmentation assay (α-sIgM-induced apoptosis); format: cell-based, mouse; settings: 0.1 μM quinacrine, 6 μg/mL ODN 1760, α-sIgM, 16 hours
Experimental: The DNA fragmentation assay was carried out generally as follows. WEHI 231 cells were incubated with 0.5 μCi/milliliter [^3H] thymidine for 3 hours, centrifuged, resuspended in 2 milliliters of fresh medium at 2×10^5/milliliter, and incubated in a 24-well plate with additions as indicated. After incubation for 16-18 hours, 1 milliliter aliquots of the cells were centrifuged, washed with 200 μliters PBS. This suspension was drawn into a pipette tip containing 25 μliters of 2% SDS, and the mixture was immediately ejected into a well of a 0.8% agarose TBE gel containing 0.5 μliter/milliliter ethidium bromide. The gel was electrophoresed for 1 hour at 65 volts, destained in water, and photographed under ultraviolet light. The lanes of the gel were cut into three approximately equal portions. […] The gel portions were melted in glass scintillation vials and mixed with a 20 milliliter of scintillation cocktail and counted in a scintillation counter. The amount of fragmented DNA (DNA in the second and third gel pieces) was expressed as a percentage of the total counts recovered in the lane.
Referring to the experiments summarized in FIG. 2a, WEHI 231 cells (2×10^5 per milliliter) were incubated with or without 6 μgrams/milliliter ODN 1760, 10 μgrams/milliliter α-sIgM, or 0.1 μM quinacrine as indicated. Live cells were counted daily. […]

[3] = system: human peripheral blood mononuclear cells (PBMC); test: ODN 1760-induced IL-6 production in human peripheral blood mononuclear cells; format: cell-based; settings: 24 hours
Experimental: Referring to the experiments summarized in FIG. 9, human peripheral blood mononuclear cells (PBMC) from three donors were incubated with or without ODN 1760 and the indicated concentration of test compound. After 24 hours, the concentration of IL-6 was determined in the supernatant. The figure indicates the percentage of IL-6 in reference to ODN-treated cells. The IL-6 amounts for control sample per donor were as follows: donor 1, 203 picograms/milliliter; donor 2, 71.5 picograms/milliliter; donor 3, 465 picograms/milliliter. IL-6 measured from untreated cells was 0-21 picograms/milliliter. Results from the three donors were averaged, and error bars indicate 1 standard deviation.

WEHI 231 cells [4] = test: Protection by lipopolysaccharide against α-sIgM-induced inhibition of [3H] thymidine uptake; format: cell-based, mouse; settings: 0.1 μM quinacrine, concentration that completely reversed the effect of ODN 1760
Experimental: as §1, with “added. In a typical experiment, WEHI 231 cells incorporate about 15% of added ^3H.” for “added.”
In the experiments summarized in FIG. 5, the influence of LPS on α-sIgM-induced suppression of thymidine incorporation was examined.
Lipopolysaccharide (LPS) was added at the indicated concentration with or without 10 μgrams/milliliter α-sIgM and 0.1 μM quinacrine. The small degree of protection against α-sIgM-induced inhibition of [^3H] thymidine uptake afforded by LPS is not influenced by quinacrine.

[5] = system: multi-drug resistance pump; test: Potency with inhibition of the multi-drug resistance pump; format: cell-based

CCN(CC)CCCC(C)Nc1c2ccc(Cl)cc2nc2ccc(OC)cc12 (stereo not shown) [quinacrine]
Block of CpG-ODN action on subsequent addition (FIG. 4) (WEHI 231 cells [1]; 0.1 μM quinacrine added 8 hours after the CpG-ODN): blocked the action of CpG-ODN
Block of the action of phosphodiester ODN (FIG. 4) (WEHI 231 cells [1]; 0.1 μM quinacrine, PD ODN 30 μM at 0 and 8 hours): effective in blocking
vs. Chloroquine, fold (WEHI 231 cells [1]; Table 3, 9-aminoacridines): 7.76 fold
Activity,-log10 (concentration (M) for half maximal inhibition of CpG-ODN effect on [3H] thymidine uptake in the presence of α-sIgM) (WEHI 231 cells [1]; Table 3, 9-aminoacridines, WEHI 231 cells): 7.85
Inhibition of the CpG-ODN effect (FIG. 1) (WEHI 231 cells [1]; at nanomolar concentrations, 10 μg/mL α-sIgM, 6 μg/mL ODN 1760): completely inhibited
Inhibition at increasing concentrations of ODN 1760 (non-competitive kinetics, FIG. 3) (WEHI 231 cells [1]; range of concentrations of ODN 1760 and quinacrine, 10 μg/mL α-sIgM): increasing the concentration of ODN 1760 did not overcome the inhibitory effect
Reversal of ODN 1760 protection, percentage of fragmented DNA (FIG. 2b) (WEHI 231 cells [2]): reversed this protection
Effect on ODN 1760-induced IL-6 production (FIG. 9) [3]: inhibited
Effect on the action of LPS (FIG. 5) (WEHI 231 cells [4]): no effect
Change of potency on inhibition of the multi-drug resistance pump [5]: magnified
